Test results taken from PubChem BioAssay AID2060907 (Molecular Pharmacology Branch, DTP, NCI, 2025).
One block for each compound: values may come before it.

Tested on: 388556-164-R-J1-PDC complex spheroid viability
Assay: Anticancer human tumor 388556-164-R-J1-PDC patient-derived colon adenocarcinoma cell line growth inhibition [RAS]
Conditions: for IC50: curve of first compound; for viability, T/C: stronger effect = lower value
In short: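 Multi-cell-type spheroids: tumor cells plus HUVEC endothelial cells and mesenchymal stem cells. RAS-pathway inhibitors were combined with targeted agents, each dosed in half-log steps down from clinical Cmax, or from 10 microM when Cmax was unknown.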

[1] = second compound 0.000949 µM, first compound 0.0316 µM
[2] = second compound 0.000949 µM, first compound 0.1 µM
[3] = second compound 0.000949 µM, first compound 0.316 µM
[4] = second compound 0.000949 µM, first compound 1 µM
[5] = second compound 0.000949 µM, first compound 3.16 µM
[6] = second compound 0.000949 µM, first compound 10 µM
[7] = second compound 0.003 µM, first compound 0.0316 µM
[8] = second compound 0.003 µM, first compound 0.1 µM
[9] = second compound 0.003 µM, first compound 0.316 µM
[10] = second compound 0.003 µM, first compound 1 µM
[11] = second compound 0.003 µM, first compound 3.16 µM
[12] = second compound 0.003 µM, first compound 10 µM
[13] = second compound 0.00949 µM, first compound 0.0316 µM
[14] = second compound 0.00949 µM, first compound 0.1 µM
[15] = second compound 0.00949 µM, first compound 0.316 µM
[16] = second compound 0.00949 µM, first compound 1 µM
[17] = second compound 0.00949 µM, first compound 3.16 µM
[18] = second compound 0.00949 µM, first compound 10 µM
[19] = second compound 0.03 µM, first compound 0.0316 µM
[20] = second compound 0.03 µM, first compound 0.1 µM
[21] = second compound 0.03 µM, first compound 0.316 µM
[22] = second compound 0.03 µM, first compound 1 µM
[23] = second compound 0.03 µM, first compound 3.16 µM
[24] = second compound 0.03 µM, first compound 10 µM
[25] = second compound 0.0949 µM, first compound 0.0316 µM
[26] = second compound 0.0949 µM, first compound 0.1 µM
[27] = second compound 0.0949 µM, first compound 0.316 µM
[28] = second compound 0.0949 µM, first compound 1 µM
[29] = second compound 0.0949 µM, first compound 3.16 µM
[30] = second compound 0.0949 µM, first compound 10 µM
[31] = second compound 0.3 µM, first compound 0.0316 µM
[32] = second compound 0.3 µM, first compound 0.1 µM
[33] = second compound 0.3 µM, first compound 0.316 µM
[34] = second compound 0.3 µM, first compound 1 µM
[35] = second compound 0.3 µM, first compound 3.16 µM
[36] = second compound 0.3 µM, first compound 10 µM
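Also: spheroids exposed to compound for 7 days before readout.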
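For viability, T/C in this document: 100% = DMSO vehicle control luminescence.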

IC50 (second compound 0.000949 µM): 774 nM
IC50 (second compound 0.003 µM): 694 nM
IC50 (second compound 0.00949 µM): 233 nM
IC50 (second compound 0.03 µM): 67.6 nM
IC50 (second compound 0.0949 µM): < 31.6 nM
IC50 (second compound 0.3 µM): < 31.6 nM
Structure (SMILES): Cc1nc(N2CCC3(CC2)COC(C)C3N)c(CO)nc1Sc1ccnc(N)c1Cl (stereo not given) + CCn1c(-c2cc(N3CCN(C)CC3)cnc2C(C)OC)c2c3cc(ccc31)-c1csc(n1)CC(NC(=O)C1CC1C)C(=O)N1CCCC(N1)C(=O)OCC(C)(C)C2
viability, T/C [1]: 84.3%
viability, T/C [2]: 83.6%
viability, T/C [3]: 60.2%
viability, T/C [4]: 47.5%
viability, T/C [5]: 43.1%
viability, T/C [6]: 34.3%
viability, T/C [7]: 81.2%
viability, T/C [8]: 70.3%
viability, T/C [9]: 57.7%
viability, T/C [10]: 45.8%
viability, T/C [11]: 39.2%
viability, T/C [12]: 32.8%
viability, T/C [13]: 68.7%
viability, T/C [14]: 53.4%
viability, T/C [15]: 52.5%
viability, T/C [16]: 36.6%
viability, T/C [17]: 35.1%
viability, T/C [18]: 29.7%
viability, T/C [19]: 56.7%
viability, T/C [20]: 45.6%
viability, T/C [21]: 39.2%
viability, T/C [22]: 33.4%
viability, T/C [23]: 29.9%
viability, T/C [24]: 23.5%
viability, T/C [25]: 40.6%
viability, T/C [26]: 37.2%
viability, T/C [27]: 30.9%
viability, T/C [28]: 26.3%
viability, T/C [29]: 25.9%
viability, T/C [30]: 22.8%
viability, T/C [31]: 28.8%
viability, T/C [32]: 30.6%
viability, T/C [33]: 25.4%
viability, T/C [34]: 25.7%
viability, T/C [35]: 24%
viability, T/C [36]: 20%

IC50 (second compound 0.000949 µM): 106 nM
IC50 (second compound 0.003 µM): 116 nM
IC50 (second compound 0.00949 µM): 47.6 nM
IC50 (second compound 0.03 µM): < 31.6 nM
IC50 (second compound 0.0949 µM): < 31.6 nM
IC50 (second compound 0.3 µM): < 31.6 nM
Structure (SMILES): NC1c2ccccc2OC12CCN(c1cnc3c(N4CCCc5ncccc54)n[nH]c3n1)CC2 (stereo not given) + CCn1c(-c2cc(N3CCN(C)CC3)cnc2C(C)OC)c2c3cc(ccc31)-c1csc(n1)CC(NC(=O)C1CC1C)C(=O)N1CCCC(N1)C(=O)OCC(C)(C)C2
viability, T/C [1]: 64.5%
viability, T/C [2]: 50.1%
viability, T/C [3]: 39%
viability, T/C [4]: 39.8%
viability, T/C [5]: 30.3%
viability, T/C [6]: 29.1%
viability, T/C [7]: 63%
viability, T/C [8]: 52%
viability, T/C [9]: 39.2%
viability, T/C [10]: 30.3%
viability, T/C [11]: 27.7%
viability, T/C [12]: 22.6%
viability, T/C [13]: 54.3%
viability, T/C [14]: 43.1%
viability, T/C [15]: 30.6%
viability, T/C [16]: 24.3%
viability, T/C [17]: 23.8%
viability, T/C [18]: 21.9%
viability, T/C [19]: 35.7%
viability, T/C [20]: 29.9%
viability, T/C [21]: 26.3%
viability, T/C [22]: 22.5%
viability, T/C [23]: 20.5%
viability, T/C [24]: 18.6%
viability, T/C [25]: 32.3%
viability, T/C [26]: 27.8%
viability, T/C [27]: 22.5%
viability, T/C [28]: 20.8%
viability, T/C [29]: 22.4%
viability, T/C [30]: 19.1%
viability, T/C [31]: 27.5%
viability, T/C [32]: 23.8%
viability, T/C [33]: 23.3%
viability, T/C [34]: 21.3%
viability, T/C [35]: 22.2%
viability, T/C [36]: 21.9%

Further lines, the compound ahead of its results:

Structure (SMILES): CC(=O)OC12COC1CC(O)C1(C)C(=O)C(O)C3=C(C)C(OC(=O)C(O)C(NC(=O)OC(C)(C)C)c4ccccc4)CC(O)(C(OC(=O)c4ccccc4)C21)C3(C)C (stereo not given) + CCn1c(-c2cc(N3CCN(C)CC3)cnc2C(C)OC)c2c3cc(ccc31)-c1csc(n1)CC(NC(=O)C1CC1C)C(=O)N1CCCC(N1)C(=O)OCC(C)(C)C2
IC50 (second compound 0.000949 µM): > 10000 nM
IC50 (second compound 0.003 µM): > 10000 nM
IC50 (second compound 0.00949 µM): 510 nM
IC50 (second compound 0.03 µM): < 31.6 nM
IC50 (second compound 0.0949 µM): < 31.6 nM
IC50 (second compound 0.3 µM): < 31.6 nM
viability, T/C [1]: 77.2%
viability, T/C [2]: 63.2%
viability, T/C [3]: 63.7%
viability, T/C [4]: 66.1%
viability, T/C [5]: 69.2%
viability, T/C [6]: 59.6%
viability, T/C [7]: 76.4%
viability, T/C [8]: 61.6%
viability, T/C [9]: 54%
viability, T/C [10]: 59.1%
viability, T/C [11]: 55.1%
viability, T/C [12]: 50.4%
viability, T/C [13]: 65.3%
viability, T/C [14]: 57.1%
viability, T/C [15]: 52.8%
viability, T/C [16]: 43.9%
viability, T/C [17]: 50.4%
viability, T/C [18]: 41.2%
viability, T/C [19]: 46.9%
viability, T/C [20]: 42.3%
viability, T/C [21]: 40.1%
viability, T/C [22]: 44.1%
viability, T/C [23]: 41.2%
viability, T/C [24]: 32%
viability, T/C [25]: 44.1%
viability, T/C [26]: 34.9%
viability, T/C [27]: 34.9%
viability, T/C [28]: 32.4%
viability, T/C [29]: 31.1%
viability, T/C [30]: 25.4%
viability, T/C [31]: 27.4%
viability, T/C [32]: 27.9%
viability, T/C [33]: 28%
viability, T/C [34]: 30.1%
viability, T/C [35]: 27.8%
viability, T/C [36]: 24.4%

Structure (SMILES): CCC(CC)c1cc(NC2CCC(N)C2)n2nccc2n1 (stereo not given) + CCn1c(-c2cc(N3CCN(C)CC3)cnc2C(C)OC)c2c3cc(ccc31)-c1csc(n1)CC(NC(=O)C1CC1C)C(=O)N1CCCC(N1)C(=O)OCC(C)(C)C2
IC50 (second compound 0.000949 µM): 1850 nM
IC50 (second compound 0.003 µM): 1810 nM
IC50 (second compound 0.00949 µM): 1420 nM
IC50 (second compound 0.03 µM): 1050 nM
IC50 (second compound 0.0949 µM): < 31.6 nM
IC50 (second compound 0.3 µM): < 31.6 nM
viability, T/C [1]: 84.5%
viability, T/C [2]: 104%
viability, T/C [3]: 93.3%
viability, T/C [4]: 90.6%
viability, T/C [5]: 14.7%
viability, T/C [6]: 10.2%
viability, T/C [7]: 89.6%
viability, T/C [8]: 85.2%
viability, T/C [9]: 79.3%
viability, T/C [10]: 81.1%
viability, T/C [11]: 20.5%
viability, T/C [12]: 9.94%
viability, T/C [13]: 82.7%
viability, T/C [14]: 77.2%
viability, T/C [15]: 73.7%
viability, T/C [16]: 65.1%
viability, T/C [17]: 15.4%
viability, T/C [18]: 11.8%
viability, T/C [19]: 56.5%
viability, T/C [20]: 66.5%
viability, T/C [21]: 57.9%
viability, T/C [22]: 51.7%
viability, T/C [23]: 10%
viability, T/C [24]: 11.5%
viability, T/C [25]: 40.5%
viability, T/C [26]: 47%
viability, T/C [27]: 47%
viability, T/C [28]: 38.4%
viability, T/C [29]: 9.16%
viability, T/C [30]: 11.8%
viability, T/C [31]: 28.7%
viability, T/C [32]: 32.5%
viability, T/C [33]: 32.4%
viability, T/C [34]: 27.8%
viability, T/C [35]: 5.58%
viability, T/C [36]: 11%

Structure (SMILES): Nc1ccn(C2OC(CO)C(O)C2(F)F)c(=O)n1 (stereo not given) + CCn1c(-c2cc(N3CCN(C)CC3)cnc2C(C)OC)c2c3cc(ccc31)-c1csc(n1)CC(NC(=O)C1CC1C)C(=O)N1CCCC(N1)C(=O)OCC(C)(C)C2
IC50 (second compound 0.000949 µM): > 1000 nM
IC50 (second compound 0.003 µM): > 1000 nM
IC50 (second compound 0.00949 µM): > 1000 nM
IC50 (second compound 0.03 µM): 90.2 nM
IC50 (second compound 0.0949 µM): < 3.16 nM
IC50 (second compound 0.3 µM): < 3.16 nM
viability, T/C (second compound 0.000949 µM, first compound 0.00316 µM): 88.9%
viability, T/C (second compound 0.000949 µM, first compound 0.01 µM): 93.5%
viability, T/C [1]: 76.6%
viability, T/C [2]: 73.6%
viability, T/C [3]: 67.1%
viability, T/C [4]: 71.1%
viability, T/C (second compound 0.003 µM, first compound 0.00316 µM): 101%
viability, T/C (second compound 0.003 µM, first compound 0.01 µM): 84%
viability, T/C [7]: 70%
viability, T/C [8]: 65%
viability, T/C [9]: 65.3%
viability, T/C [10]: 61.8%
viability, T/C (second compound 0.00949 µM, first compound 0.00316 µM): 80.1%
viability, T/C (second compound 0.00949 µM, first compound 0.01 µM): 62.9%
viability, T/C [13]: 60.7%
viability, T/C [14]: 57.8%
viability, T/C [15]: 56.9%
viability, T/C [16]: 52.7%
viability, T/C (second compound 0.03 µM, first compound 0.00316 µM): 72%
viability, T/C (second compound 0.03 µM, first compound 0.01 µM): 53.4%
viability, T/C [19]: 56.5%
viability, T/C [20]: 47.1%
viability, T/C [21]: 52.3%
viability, T/C [22]: 46.1%
viability, T/C (second compound 0.0949 µM, first compound 0.00316 µM): 42.1%
viability, T/C (second compound 0.0949 µM, first compound 0.01 µM): 46.2%
viability, T/C [25]: 40.6%
viability, T/C [26]: 38.6%
viability, T/C [27]: 40.6%
viability, T/C [28]: 36.4%
viability, T/C (second compound 0.3 µM, first compound 0.00316 µM): 33.9%
viability, T/C (second compound 0.3 µM, first compound 0.01 µM): 35%
viability, T/C [31]: 32.5%
viability, T/C [32]: 30.1%
viability, T/C [33]: 31.4%
viability, T/C [34]: 28.8%
